For test [1], the target named is Mu-type opioid receptor (Homo sapiens) (UniProt P35372). Briefly: Agonist activity at human mu opioid receptor over-expressed in CHO cell membrane after 1 hr by [35S]GTPgammaS binding assay. In kind it is functional, cell membranes. (GTPγS resists hydrolysis and so accumulates on activated G proteins.)
For test [2], the target named is T1, Delta-type opioid receptor (Homo sapiens, UniProt P41143). Briefly: Agonist activity at human delta opioid receptor over-expressed in CHO cell membrane after 1 hr by [35S]GTPgammaS binding assay. It counts as functional, cell membranes.
T1 sequence (P41143 whole entry): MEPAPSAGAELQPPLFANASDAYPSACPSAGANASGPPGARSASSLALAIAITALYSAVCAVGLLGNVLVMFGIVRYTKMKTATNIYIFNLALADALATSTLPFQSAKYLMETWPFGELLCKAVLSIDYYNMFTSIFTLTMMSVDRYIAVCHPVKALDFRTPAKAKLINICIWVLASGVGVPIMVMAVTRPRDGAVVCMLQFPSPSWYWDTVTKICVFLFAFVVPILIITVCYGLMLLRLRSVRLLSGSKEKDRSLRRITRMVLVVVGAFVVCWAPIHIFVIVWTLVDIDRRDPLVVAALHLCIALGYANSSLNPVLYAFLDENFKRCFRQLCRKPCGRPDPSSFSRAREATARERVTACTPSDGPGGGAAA
In test [3] the target is Mu-type opioid receptor (Homo sapiens) (UniProt P35372). Briefly: Antagonist activity at human mu opioid receptor over-expressed in CHO cell membrane assessed as inhibition of DAMGO-induced [35S]GTPgammaS binding at 10 uM after 1 hr by scintillation counting method. It counts as functional, cell membranes.
The test system of test [4] is CHO. Briefly: Selectivity ratio, ratio of Ke for human mu opioid receptor over-expressed in CHO cell membrane to Ke for human delta opioid receptor over-expressed in CHO cell membrane. In kind it is cell-based.
For test [5], the target named is Kappa-type opioid receptor (Homo sapiens) (UniProt P41145). Briefly: Antagonist activity at human kappa opioid receptor over-expressed in CHO cell membrane assessed as inhibition of U69,593-induced [35S]GTPgammaS binding at 10 uM after 1 hr by scintillation counting method. In kind it is functional, cell membranes.
Sequence of Kappa-type opioid receptor (Homo sapiens) (P41145 whole entry): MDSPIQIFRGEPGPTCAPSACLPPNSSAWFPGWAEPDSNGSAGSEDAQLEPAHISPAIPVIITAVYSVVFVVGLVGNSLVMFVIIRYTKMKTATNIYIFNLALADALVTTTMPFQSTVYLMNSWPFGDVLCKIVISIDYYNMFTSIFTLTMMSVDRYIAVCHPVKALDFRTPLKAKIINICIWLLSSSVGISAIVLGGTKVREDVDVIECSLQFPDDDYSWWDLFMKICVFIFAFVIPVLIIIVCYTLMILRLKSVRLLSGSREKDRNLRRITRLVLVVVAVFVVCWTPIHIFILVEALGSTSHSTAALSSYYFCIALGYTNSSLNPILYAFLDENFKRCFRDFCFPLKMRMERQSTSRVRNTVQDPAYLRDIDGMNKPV
The target in test [6] is T1, Delta-type opioid receptor. Briefly: Antagonist activity at human delta opioid receptor over-expressed in CHO cell membrane assessed as inhibition of DPDPE-induced [35S]GTPgammaS binding at 10 uM after 1 hr by scintillation counting method. It counts as functional, cell membranes.
In test [7] the test system is CHO. Briefly: Selectivity ratio, ratio of Ke for human kappa opioid receptor over-expressed in CHO cell membrane to Ke for human delta opioid receptor over-expressed in CHO cell membrane. It counts as cell-based.
Test [8] has as its target Kappa-type opioid receptor (Homo sapiens) (UniProt P41145). Briefly: Agonist activity at human kappa opioid receptor over-expressed in CHO cell membrane after 1 hr by [35S]GTPgammaS binding assay. In kind it is functional, cell membranes.

pEC50: −log10 of the molar value. The source made the active and inactive calls. The calls are words filed in the database; no cut-off is given here.

For orientation: pEC50 means the negative decadic logarithm of the EC50, by convention in mol/L. Lower therefore signals a large EC50.

Sequence of Mu-type opioid receptor (Homo sapiens) (P35372 whole entry): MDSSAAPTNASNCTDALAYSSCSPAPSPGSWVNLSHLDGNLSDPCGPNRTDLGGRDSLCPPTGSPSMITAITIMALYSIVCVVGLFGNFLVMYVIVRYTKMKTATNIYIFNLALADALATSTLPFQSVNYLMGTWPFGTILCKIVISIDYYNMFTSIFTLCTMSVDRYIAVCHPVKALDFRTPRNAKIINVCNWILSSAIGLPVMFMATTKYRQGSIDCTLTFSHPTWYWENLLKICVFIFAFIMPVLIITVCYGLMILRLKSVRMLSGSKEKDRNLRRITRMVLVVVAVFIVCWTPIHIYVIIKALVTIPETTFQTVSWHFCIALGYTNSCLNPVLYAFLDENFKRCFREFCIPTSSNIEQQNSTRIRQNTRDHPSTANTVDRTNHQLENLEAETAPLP

For the compound `COc1cc(/C=C/c2ccc(O)c(O)c2CC=C(C)C)c(C/C=C(\C)CCC=C(C)C)c(OC)c1`, the result in test [1] and in test [8] was inactive. The compound further had a pEC50 in test [2] of 5.18. In addition, the Ke in test [3] is greater than 10 µM; in test [5] it was greater than 10 µM; in test [6], 0.025 µM. The Ratio Ke in the test with CHO [4] and in the test on CHO [7] was greater than 400 each time.

Source of the values: ChEMBL document CHEMBL3734736, “A selective delta opioid receptor antagonist based on a stilbene core” (Bioorg Med Chem Lett, 2015).
